Test results published in patent EP0189629A1, “Method of treatment of viral diseases in plants utilizing ribavirin” (VIRATEK, INC., priority 1985, dated 1986).

Columns and labels:
Solubility = type: physicochemical; details: for solubility in other solvents: alcohol (5-15% by volume) and water, DMF (5-25%) and water, DMSO (5-25%) and water, DMSO alone
From the text: Another potential use of Ribavirin is to eliminate viruses or maintain plant tissues in a virus-free state during routine propagation techniques that are presently being developed. One example is the use of encapsulated somatic embryos to propagate somatic tissues to prevent sexual variation or the need for more extensive plant breeding. Ribavirin may be especially useful in maintaining virus-free plants by its application to somatic embryos. Certain plants can be propagated asexually precluding genetic changes in progeny which might otherwise occur by sexual propagation from seed. Treatment of somatic embryos with Ribavirin prior to encapsulation will preserve plant progeny in a virus--free state. The compound could also be used in combination with newly developed plant genetic engineering procedures where the Ribavirin could be incorporated into normal propagation procedures. […] The compounds are also soluble in solutions of alcohol (5-15% by volume) and water, dimethylformamide (DMF) (5-25%) and water, dimethyl sulfoxide (DMSO) (5-25%) and water and dimethyl sulfoxide alone.

TMV [1] = experiment: TMV multiplication in inoculated unorganized callus cells; type: cell-based; details: callus cells inoculated with TMV, single agent
TMV [2] = experiment: TMV multiplication in leaf cells, treatment soon after inoculation; type: cell-based; details: treatment began soon after inoculation
TMV [3] = experiment: TMV-infected tobacco callus growth and shoot regeneration on medium containing chemical; type: cell-based
[4] = test system: lily symptomless virus (LSV) and tulip breaking virus (TBV); experiment: Lily meristem culture, virus testing by ELISA, immuno-diffusion drop test and electron microscopy; type: cell-based; details: 40.0 uM Ribavirin
Description: Other experiments were performed with Lilium Lon- oifiorum "Arai" which has been described as difficult to obtain free of virus, and with Lilium"Enchantment", both containing lily symptomless virus (LSV) and tulip breaking virus (TBV). Meristems, induced on media with or without Ribavirin, were isolated and subsequently cultured on a medium without Ribavirin. […] Leaf samples of the plants were tested for the presence of LSV and TBV by means of ELISA, the immuno-diffusion drop test and electron microscopy.

Lilium = experiment: Lily meristem culture, meristem formation and bulb growth; type: cell-based
[5] = test system: protocorms of healthy Cymbidium; experiment: Growth of healthy Cymbidium protocorms on medium containing Ribavirin; type: cell-based
Description: Meristems or protocorms of Cymbidium were cultured on liquid or solid (0.7% agar) KNUDSON C medium, as modified for orchids by MOREL.

[6] = test system: orchid strain of tobacco mosaic virus (TMV-0); experiment: Cymbidium orchid tissue culture, virus titers by electron micrography and serological test; type: cell-based; details: 30, 100, 300 and 1,000 ppm Ribavirin; 200 ppm DMSO in all treatments
Description: Ribavirin concentrations from 30 to 1,000 ppm have been included in tissue culture media in which orchids are being cloned, and used to drench and spray whole orchid plants in a controlled way. Virus titers were determined by transmission electron micrography and ELIZA serological tests. In order to enhance penetration of Ribavirin, 200 ppm of Dimethylsulfoxide - (DMSO) was included in all treatments including controls.

[7] = test system: Odontoglossum ring spot virus (ORSV); experiment: ORSV-infected Cymbidium meristem/protocorm culture, ELISA; type: cell-based
Description: Odontoglossum ring spot virus (ORSV) - infected Cymbidium mother plants have been regenerated in the presence of Ribavirin. Meristems or protocorms of Cymbidium were cultured on liquid or solid (0.7% agar) KNUDSON C medium, as modified for orchids by MOREL.
(§1) Although the proportion of healthy plants obtained by this technique is usually high, it requires complex media and the rate of regrowth of meristematic explants is low. Menstems were cultured on MURASHIGE and SKOOG medium- supplanted with vitamin 85, and with growth substances. Other explants (shoots, fragment of shoots, stem--fragments) were grown on MURASHIGE and SKOOG medium without addition of growth substances. The presence of potato virus Y in plant material was controlled before and after in vitro culture, by biological indexing on tobacco test plants, or by serology (ELISA). Results thus obtained confirmed the elimination of potato virus Y from infected plants by meristem culture. […] Cymbidium protocorms infected with odontoglossum ring spot virus were placed for proliferation on liquid KNUDSON C medium containing 0, 10, 25 or 40 ppm of Ribavirin.

plant virus groups = experiment: Spectrum of activity against plant virus groups and plant viral diseases
potato virus Y = experiment: In vitro culture of meristems and other explants of potato virus Y-infected potato; type: cell-based
Description: as §1

Question: Which “solubility in other solvents” value (Solubility) does the source give for `CC(=O)OC[C@H]1O[C@@H](n2cnc(C(N)=O)n2)[C@H](OC(C)=O)[C@@H]1OC(C)=O` [2,3,5--triacetyl] here?
Answer: The value was “also soluble”.

Question: And the solubility in water (Solubility)?
Answer: The solubility in water was “soluble in water”.

Question: What does the source list for `CCCC(=O)OC[C@H]1O[C@@H](n2cnc(C(N)=O)n2)[C@H](O)[C@@H]1O` [5'-butyryl]?
Answer: solubility in other solvents (Solubility): also soluble; solubility in water (Solubility): soluble in water

Question: Which “multiplication of TMV in unorganized callus cells” value (TMV [1]) does the source give for `Nc1ncnc2c1ncn2[C@@H]1O[C@H](CO)[C@@H](O)[C@@H]1O` [Adenine Arabinoside] here?
Answer: The value was “neither inhibited”.

Question: What about the “multiplication of TMV in leaf cells” value (TMV [2]) of the same compound?
Answer: The value was “effectively inhibited”.

Question: Which results are given for `NC(=O)c1ncn([C@@H]2O[C@H](CO)[C@@H](O)[C@H]2O)n1` [Ribavirin, 1-β-D-ribofuranosyl-1,2,4-triazole-3-carboxamide]?
Answer: TMV in newly developed tobacco callus or shoots (TMV [3]; callus from TMV-infected pith tissue grown on medium with Ribavirin): still contained TMV; tobacco callus growth and differentiation (TMV [3]; concentration twice that required to inhibit TMV multiplication in leaf disks): grew and differentiated; percentage of plants infected with LSV and/or TBV ([4]; L. "Enchantment"): the effect is less clear; percentage of plants infected with LSV and/or TBV ([4]; L. Lonaiflorum "Arai"): reduced; bulb growth (Lilium; 400.0 uM): severely reduced; number of adventitiously formed meristems and average bulb weight (Lilium; concentration range 0.0-40.0 uM): not significantly influenced; multiplication of TMV in unorganized callus cells (TMV [1]): neither inhibited; multiplication of TMV in leaf cells (TMV [2]): effectively inhibited; growth of healthy Cymbidium protocorms ([5]; 50 ppm, after four weeks of culture): became necrotic; growth of healthy Cymbidium protocorms ([5]; media containing 0, 10 or 25 ppm): grew well; virus status of new growth of Cymbidium tissue cultures [6]: developed virus-free new growth; multiplication of ORSV in Cymbidium protocorms ([7]; 10 ppm, liquid KNUDSON C medium, three monthly subcultures): did not inhibit; virus concentration in Cymbidium protocorms ([7]; 25 ppm, liquid KNUDSON C medium, monthly subcultures): decreased progressively; ORSV detection by ELISA test ([7]; from the sixth subculture, regeneration in the presence of Ribavirin): no longer detectible; effectiveness against plant viral diseases (plant virus groups; crops and viruses listed in the 2nd table and the 3rd table): effective; activity against plant virus groups (plant virus groups; potexviruses, potyviruses, closteroviruses, tymoviruses, carlaviruses, cucumoviruses, ilarviruses, tombusviruses, tomato spotted wilt virus, alfalfa mosaic virus): active; sensitivity of plant virus groups to Ribavirin (plant virus groups; tobamovirus and bromovirus groups): only slightly sensitive; solubility in other solvents (Solubility): also soluble; solubility in water (Solubility): soluble in water; regeneration rate in meristem culture (potato virus Y; 10, 25 and 50 ppm, meristems of potato virus Y-infected potato): enhanced the regeneration rate; number of virus-free plants obtained after in vitro culture (potato virus Y; 25 or 50 ppm, shoots, shoot pieces and stem-fragments, three to four weeks): significantly enhanced; phytotoxicity in meristem culture (potato virus Y; virus-inhibiting concentrations, meristem culture of potato virus Y-infected potato): phytotoxicity at virus-inhibiting concentrations
